Reference: patent US8637525B2, “Compounds for the reduction of beta-amyloid production” (Bristol-Myers Squibb Company, priority 2009, dated 2014)
Where two headings read alike, the source gives them in different places. One block for each compound: values may come before it.

System: Aβ1-42 production
Assay: Cellular assay for inhibition of Aβ1-42 production (H4 APP751 SWE clone 8.20)
Type: cell-based
Settings: H4 APP751 SWE clone 8.20 cells, 19 h incubation
Outline: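 Viewlux signal read-out; IC50 by curve fit. Sandwich: 565 anti-Aβ42 neoepitope (Wallac conjugate, 0.8 ng/well) + 26D6 anti-N-terminus (APC, 75 ng/well), in Tris-HCl 40 mM pH 7.4/0.2% BSA, o/n 4 °C. Cells exposed to compound 19 h, 37 °C, 5% CO2.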

[1] = 19 h, class symbols, read-out: Activity Rating (Aβ42 cellular IC50)
[2] = 19 h, read-out: Activity Rating (Aβ42 cellular IC50), numeric value
[3] = class symbols, read-out: Activity Rating (Aβ42 cellular IC50)

IC50 [3]: 0.01 to 0.1 µM
Structure (SMILES): COc1cc(Nc2nc3c(c(N(C)C)n2)CCC3c2ccc(F)cc2)ccc1-n1cnc(Cl)c1 (single isomer, unassigned) [Example 46B, N^2-(4-(4-chloro-1H-imidazol-1-yl)-3-methoxyphenyl)-7-(4-fluorophenyl)-N^4,N^4-dimethyl-6,7-dihydro-5H-cyclopenta[d]pyrimidine-2,4-diamine]

IC50 [3]: 0.0015 to 0.0099 µM
Structure (SMILES): CNc1nc(Nc2ccc(-n3cnc(Cl)c3)c(OC)c2)nc2c1CCC2c1ccc(F)cc1F (single isomer, unassigned) [Example 109B, N^2-(4-(4-Chloro-1H-imidazol-1-yl)-3-methoxyphenyl)-7-(2,4-difluorophenyl)-N^4-methyl-6,7-dihydro-5H-cyclopenta[d]pyrimidine-2,4-diamine]

IC50 [1]: 0.01 to 0.1 µM
Structure (SMILES): COc1cc(Nc2nc3c(c(N4CCC[C@@H]4C)n2)COC3c2ccc(F)cc2)ccc1-n1cnc(Cl)c1 (single isomer, unassigned) [Example 74A]

IC50 [1]: 0.0015 to 0.0099 µM
Structure (SMILES): CCNc1nc(Nc2ccc(-n3cnc(Cl)c3)c(OC)c2)nc2c1CN(CC(F)F)CC2c1ccccc1 (stereo not shown) [Example 197B, N4-ethyl-N2-(3-methoxy-4-(4-chloro-1H-13-imidazol-1-yl)phenyl)-8-phenyl-6-(2,2-difluoroethyl)-5,6,7,8-tetrahydropyrido[4,3-d]pyrimidine-2,4-diamine]

IC50 [1]: 0.01 to 0.1 µM
Structure (SMILES): CNc1nc(Nc2ccc(-n3cnc(C)n3)c(OC)c2)nc2c1CC[C@H]2c1cccc(OC)c1 (single isomer, unassigned) [Example 272A]

IC50 [2]: 0.012 µM
Structure (SMILES): COc1cc(Nc2nc3c(c(N4CC[C@@H](F)C4)n2)CCC3c2ccc(F)cc2)ccc1-n1cnc(Cl)c1 (single isomer, unassigned) [Example 38A]

IC50 [2]: 0.29 µM
Structure (SMILES): COc1cc(Nc2nc3c(c(N4C[C@@H](C)O[C@@H](C)C4)n2)COC3c2ccc(F)cc2)ccc1-n1cnc(Cl)c1 (stereo partly drawn) [Example 84B, N-(4-(4-chloro-1H-imidazol-1-yl)-3-methoxyphenyl)-4-((2S,6R)-2,6-dimethylmorpholino)-7-(4-fluorophenyl)-5,7-dihydrofuro[3,4-d]pyrimidin-2-amine]

IC50 [3]: 0.0015 to 0.0099 µM
Structure (SMILES): COc1cc(Nc2nc(N[C@H](C)C3CC3)c3c(n2)C(c2ccc(F)cc2)CC3)ccc1-n1cnc(Cl)c1 (single isomer, unassigned) [Example 49A]

IC50 [2]: 0.37 µM
Structure (SMILES): COc1cc(Nc2nc3c(c(N4CC[C@@H](F)C4)n2)COCC3c2ccc(OC(F)(F)F)cc2)ccc1-n1cnc(Cl)c1 (stereo partly shown) [Example 123B]

IC50 [3]: 0.0015 to 0.0099 µM
Structure (SMILES): CCNc1nc(Nc2ccc(-n3cnc(Cl)c3)c(OC)c2)nc2c1CN(C(=O)OC)CC2c1ccccc1 (stereo not shown) [Example 131A, Methyl 2-(4-(4-chloro-1H-imidazol-1-yl)-3-methoxyphenylamino)-4-(ethylamino)-8-phenyl-7,8-dihydropyrido[4,3-d]pyrimidine-6(5H)-carboxylate]

Second part, the compound before the results:

Structure (SMILES): CNc1nc(Nc2ccc(CC#N)cc2)nc2c1CCC2c1ccccc1 (stereo not shown) [Example 231, 2-(4-(4-(methylamino)-7-phenyl-6,7-dihydro-5H-cyclopenta[d]pyrimidin-2-ylamino)phenyl)acetonitrile]
IC50 [1]: 0.1 to 1 µM

Structure (SMILES): CCC1CCCN1c1nc(Nc2ccc(-n3cnc(Cl)c3)c(OC)c2)nc2c1CCC2c1ccc(F)cc1 (single isomer, unassigned) [Example 24B, N-(4-(4-chloro-1H-imidazol-1-yl)-3-methoxyphenyl)-4-(2-ethylpyrrolidin-1-yl)-7-(4-fluorophenyl)-6,7-dihydro-5H-cyclopenta[d]pyrimidin-2-amine]
IC50 [2]: 0.2 µM

Structure (SMILES): COc1cc(Nc2nc3c(c(N(C)C)n2)CCCC3c2ccc(F)cc2)ccc1-n1cnc(Cl)c1 (racemic) [Example 127, N^2-(4-(4-Chloro-1H-imidazol-1-yl)-3-methoxyphenyl)-8-(4-fluorophenyl)-N^4,N^4-dimethyl-5,6,7,8-tetrahydroquinazoline-2,4-diamine]
IC50 [1]: 0.01 to 0.1 µM

Structure (SMILES): COc1cc(Nc2nc3c(c(N4CCCC4C)n2)CCC3c2ccc(F)cc2)ccc1-n1cnc(Cl)c1 (single isomer, unassigned) [Example 20A, N-(4-(4-chloro-1H-imidazol-1-yl)-3-methoxyphenyl)-7-(4-fluorophenyl)-4-(2-methylpyrrolidin-1-yl)-6,7-dihydro-5H-cyclopenta[d]pyrimidin-2-amine]
IC50 [3]: 0.0015 to 0.0099 µM

Structure (SMILES): CNc1nc(Nc2ccc(Br)c(OC)c2)nc2c1CCC2c1ccccc1 (stereo not shown) [Example 256, N2-(4-bromo-3-methoxyphenyl)-N4-methyl-7-phenyl-6,7-dihydro-5H-cyclopenta[d]pyrimidine-2,4-diamine]
IC50 [2]: 0.097 µM

Structure (SMILES): CCNc1nc(Nc2ccc(-n3cnc(Cl)c3)c(OC)c2)nc2c1COCC2c1ccc(F)cc1 (racemic) [Example 56, N2-(4-(4-chloro-1H-imidazol-1-yl)-3-methoxyphenyl)-N4-ethyl-8-(4-fluorophenyl)-7,8-dihydro-5H-pyrano[4,3-d]pyrimidine-2,4-diamine]
IC50 [1]: 0.01 to 0.1 µM

Structure (SMILES): COc1cc(Nc2nc3c(c(N4CCC(F)(F)CC4)n2)CCC3c2ccc(F)cc2)ccc1-n1cnc(Cl)c1 (racemic) [Example 39, N-(4-(4-chloro-1H-imidazol-1-yl)-3-methoxyphenyl)-4-(4,4-difluoropiperidin-1-yl)-7-(4-fluorophenyl)-6,7-dihydro-5H-cyclopenta[d]pyrimidin-2-amine]
IC50 [1]: 0.01 to 0.1 µM

Structure (SMILES): COc1cc(Nc2nc3c(c(N4CCC4)n2)CCC3c2ccccc2)ccc1-n1cnc(Cl)c1 (single isomer, unassigned) [Example 6B, 4-(azetidin-1-yl)-N-(4-(4-chloro-1H-imidazol-1-yl)-3-methoxyphenyl)-7-phenyl-6,7-dihydro-5H-cyclopenta[d]pyrimidin-2-amine]
IC50 [3]: 0.01 to 0.1 µM

Structure (SMILES): CNc1nc(Nc2ccc(-n3ncnc3C)c(F)c2)nc2c1CCOC2c1ccccc1 (stereo not shown) [Example 87, N2-(3-fluoro-4-(5-methyl-1H-1,2,4-triazol-1-yl)phenyl)-N4-methyl-8-phenyl-6,8-dihydro-5H-pyrano[3,4-d]pyrimidine-2,4-diamine]
IC50 [2]: 0.06 µM

Structure (SMILES): CCNc1nc(Nc2ccc(-n3ncnc3C)c(F)c2)nc2c1CN(CC(F)F)CC2c1ccccc1 (stereo not shown) [Example 194, 6-(2,2-difluoroethyl)-N4-ethyl-N2-(3-fluoro-4-(5-methyl-1H-1,2,4-triazol-1-yl)phenyl)-8-phenyl-5,6,7,8-tetrahydropyrido[4,3-d]pyrimidine-2,4-diamine]
IC50 [1]: 0.01 to 0.1 µM

Structure (SMILES): COc1cc(Nc2nc3c(c(N4CCC4)n2)CCC3c2ccccc2)ccc1-n1cnc(Cl)c1 (single isomer, unassigned) [Example 6A, 4-(azetidin-1-yl)-N-(4-(4-chloro-1H-imidazol-1-yl)-3-methoxyphenyl)-7-phenyl-6,7-dihydro-5H-cyclopenta[d]pyrimidin-2-amine]
IC50 [3]: 0.0015 to 0.0099 µM

Structure (SMILES): COc1cc(Nc2nc3c(c(N4CC(C)(O)C4)n2)CCC3c2ccc(F)cc2)ccc1-n1cnc(Cl)c1 (stereo not shown) [Example 189, 1-(2-(4-(4-chloro-1H-imidazol-1-yl)-3-methoxyphenylamino)-7-(4-fluorophenyl)-6,7-dihydro-5H-cyclopenta[d]pyrimidin-4-yl)-3-methylazetidin-3-ol]
IC50 [3]: 0.0015 to 0.0099 µM

Structure (SMILES): COc1cc(Nc2nc3c(c(N4CC(C)(F)C4)n2)CCC3c2ccc(F)cc2)ccc1-n1cnc(Cl)c1 (stereo not shown) [Example 190, N-(4-(4-chloro-1H-imidazol-1-yl)-3-methoxyphenyl)-4-(3-fluoro-3-methylazetidin-1-yl)-7-(4-fluorophenyl)-6,7-dihydro-5H-cyclopenta[d]pyrimidin-2-amine]
IC50 [2]: 0.037 µM

Structure (SMILES): COc1cc(Nc2nc3c(c(N4CCC(N(C)C)C4)n2)CCC3c2ccc(F)cc2)ccc1-n1cnc(Cl)c1 (stereo not shown) [Example 29, N-(4-(4-chloro-1H-imidazol-1-yl)-3-methoxyphenyl)-4-(3-(dimethylamino)pyrrolidin-1-yl)-7-(4-fluorophenyl)-6,7-dihydro-5H-cyclopenta[d]pyrimidin-2-amine]
IC50 [1]: 0.01 to 0.1 µM

Structure (SMILES): CNc1nc(Nc2ccc(-n3cnc(C)n3)c(OC)c2)nc2c1CCC2c1ccccc1 (stereo not shown) [Example 1, N2-(3-methoxy-4-(3-methyl-1H-1,2,4-triazol-1-yl)phenyl)-N4-methyl-7-phenyl-6,7-dihydro-5H-cyclopenta[d]pyrimidine-2,4-diamine]
IC50 [1]: 0.0015 to 0.0099 µM

Structure (SMILES): COc1cc(Nc2ncc3c(n2)C(c2ccc(F)cc2)CCC3)ccc1-n1cnc(Cl)c1 (stereo not shown) [Example 128, N-(4-(4-Chloro-1H-imidazol-1-yl)-3-methoxyphenyl)-8-(4-fluorophenyl)-5,6,7,8-tetrahydroquinazolin-2-amine]
IC50 [1]: 0.1 to 1 µM

Structure (SMILES): CNc1nc(Nc2ccc(-n3ncnc3C)c(F)c2)nc2c1CCC2c1cc(F)c(F)c(F)c1 (stereo not shown) [Example 104, N^2-(3-fluoro-4-(5-methyl-1H-1,2,4-triazol-1-yl)phenyl)-N^4-methyl-7-(3,4,5-trifluorophenyl)-6,7-dihydro-5H-cyclopenta[d]pyrimidine-2,4-diamine]
IC50 [1]: 0.01 to 0.1 µM

Structure (SMILES): CNc1nc(Nc2nc3cc(C#N)ccc3[nH]2)nc2c1CCC2c1ccccc1 (stereo not shown) [Example 232, 2-(4-(methylamino)-7-phenyl-6,7-dihydro-5H-cyclopenta[d]pyrimidin-2-ylamino)-1H-benzo[d]imidazole-5-carbonitrile]
IC50 [1]: > 1 µM

Structure (SMILES): CNc1nc(Nc2ccc(C3CC3)cc2)nc2c1CCC2c1ccc(F)cc1 (stereo not shown) [Example 258, N2-(4-cyclopropylphenyl)-7-(4-fluorophenyl)-N4-methyl-6,7-dihydro-5H-cyclopenta[d]pyrimidine-2,4-diamine]
IC50 [1]: > 1 µM

Structure (SMILES): COc1cc(Nc2nc3c(c(N4CCC(C)(N)CC4)n2)CCC3c2ccc(F)cc2)ccc1-n1cnc(Cl)c1 (stereo not shown) [Example 25, 4-(4-amino-4-methylpiperidin-1-yl)-N-(4-(4-chloro-1H-imidazol-1-yl)-3-methoxyphenyl)-7-(4-fluorophenyl)-6,7-dihydro-5H-cyclopenta[d]pyrimidin-2-amine]
IC50 [1]: 0.01 to 0.1 µM

Structure (SMILES): CNc1nc(Nc2cncnc2)nc2c1CCC2c1ccccc1 (stereo not shown) [Example 223, N4-methyl-7-phenyl-N2-(pyrimidin-5-yl)-6,7-dihydro-5H-cyclopenta[d]pyrimidine-2,4-diamine]
IC50 [2]: 11 µM
